Measured values published in US20230271968A1, “PYRAZOLOPYRIMIDINE COMPOUND USED AS ATR KINASE INHIBITOR” (priority 2020, published 2023).
Where two headings read alike, the source gives them in different places.

How the values were obtained:
ATR kinase = ATR kinase (Homo sapiens (Human), UniProt Q13535); assay: Assay of ATR kinase activity (time-resolved fluorescence, phosphorylation of p53-derived protein); type: biochemical; conditions: ATR/ATRIP, p53 substrate, 30 minutes at room temperature
Protocol: The amount of phosphorylated protein was determined by time-resolved fluorescence in this assay. The amount of phosphorylated protein was detected by anti-p53-phospho-(serine 15)-K-specific antibody (Cisbio, art. No.: 61GSTDLA) and d2 labeled anti-GST antibody (Cisbio, art. No. 61P08KAE). […] The reagents used above were purchased from Sigma or Invitrogen, except for those whose manufacturers were mentioned.
Operations were as Follows
4×p53 substrate working solution (40 nM) was prepared with 1×reaction buffer, and 2.5 μL of the 4×p53 substrate working solution was added to a 384-well analysis plate. […] 4×ATP working solution (2 mM) was prepared with deionized water, and 2.5 μL of the 4×ATP working solution was added to a 384-well analysis plate. The plates were incubated at room temperature in dark for 30 minutes. […] Finally, 5 μL of assay mixture (0.084 ng/μL Anti-phospho-p53 (ser15)-K and 5 ng/μL Anti-GST-d2) was added to the 384 well analysis plates, and incubated at room temperature overnight. The fluorescence signal was detected with ENVISION (Perkinelmer) instrument (excitation wavelength: 320 nm, emission wavelength: 665 nm and 615 nm). […] IC50 values of compounds were calculated by standard software for parameter fitting (GraphPad Prism 6.0).

[1] = tested on: TOV21G (ovarian cancer) cells; assay: Cell proliferation inhibition in vitro, CellTiter-Glo luminescence, TOV21G; type: cell-based, human; conditions: read-out: TOV21G/IC50/μM
Protocol: (§1) By detecting the effect of compounds on cell activity in vitro in tumor cell lines TOV21G (ovarian cancer) and MV4-11 (leukemia), the inhibitory effect of compounds on cell proliferation was studied in this assay.
(§2) TOV21G cells and MV4-11 cells were purchased from American Type Culture Collection (ATCC).
About 1000 cells were inoculated in each well of a 96-well culture plate, and cultured for 24 hours. Different concentrations (0-10 μM) of compounds to be assayed were added to treat the cells. Each group was assayed in triplicate. Blank wells (containing medium only) and control wells (inoculated cells without being treated with drug) were set. Cells were cultured for 120 hours. 40 μL of Cell Titer-Glo solutions (Promega, #G7573) were added to each well, and the cells were incubated with shaking for 20 min in the dark.
(§3) Inhibition rate (%)=100%×(control well−assay well)/(control well−blank well)

MV4-11 (leukemia) cells = assay: Cell proliferation inhibition in vitro, CellTiter-Glo luminescence, MV4-11; type: cell-based, human; conditions: MV4-11 cells, 120 hours
Protocol: as §1, §2
MV-4-11 cells were cultured in IMDM medium (containing 20% of FBS). About 10,000 cells were inoculated in each well of a 96-well culture plate, and treated by adding different concentrations (0-10 μM) of compounds to be assayed. Each group was assayed in triplicate. Blank wells (containing medium only) and control wells (inoculated cells without being treated with drug) were set. Cells were cultured for 120 hours. 40 μL of Cell Titer-Glo solutions were added to each well, and the cells were incubated with shaking for 20 min in the dark. 100 μL of solution was transferred from each well to a 96-well blank plate, and the luminescence value was read by Biotek Synergy H1 multifunctional microplate reader.
as §3

[2] = In vitro stability assay in human liver microsome; type: in vitro ADME; conditions: human liver microsomes, compound 2.0 nM, with or without NADPH, within 60 minutes of incubation; read-out: Human liver microsome t1/2
Protocol: (§4) The compounds of the present disclosure were subjected to stability assay in liver microsome. The compound to be assayed (with a final concentration of 2.0 nM) was co-incubated with human/mouse liver microsomes with or without the addition of NADPH. The concentration of the compound in the supernatant was determined within 60 minutes of incubation.

[3] = In vitro stability assay in mouse liver microsome; type: in vitro ADME; conditions: mouse liver microsomes, compound 2.0 nM, with or without NADPH, within 60 minutes of incubation; read-out: Mouse liver microsome t1/2
Protocol: as §4

[4] = In vivo pharmacokinetics in male ICR mice, oral gavage; conditions: mouse, 10 mg/kg, plasma
Protocol: In vivo pharmacokinetic studies were performed on the compounds of the present disclosure.
Male ICR mice (3 mice/group) were administered orally by gavage at a dose of 10 mg/kg. The plasma samples were collected before administration (0 h) and after administration (0.25, 0.5, 1, 2, 4, 6, 8, 24 h). The collected samples were subjected to LC/MS/analysis, and the data were collected. The relevant pharmacokinetic parameters were calculated by Analyst v1.6.2 (AB Applied Biosystems Company, USA) software using the collected analytical data.

ATM = ATM (Homo sapiens (Human), UniProt Q13315); assay: Kinase selectivity: inhibitory activity against ATM; type: biochemical; conditions: 3-fold serial dilution from 10 μM to 0.51 nM, 10 concentrations
Protocol: (§5) The compounds of the present disclosure were assayed for inhibition of the same family (ATM, DNA-PK, PI3K, mTOR): […]

DNA-PK = DNA-PK (Homo sapiens (Human), UniProt P78527); assay: Kinase selectivity: inhibitory activity against DNA-PK; type: biochemical; conditions: 3-fold serial dilution from 10 μM to 0.51 nM, 10 concentrations; read-out: IC50/DNAPK
Protocol: as §5

PI3Kα = PI3Kα (Homo sapiens (Human), UniProt P42336); assay: Kinase selectivity: inhibitory activity against PI3Kα; type: biochemical; conditions: 3-fold serial dilution from 10 μM to 0.51 nM, 10 concentrations
Protocol: as §5

PI3Kδ = PI3Kδ (Homo sapiens (Human), UniProt O00329); assay: Kinase selectivity: inhibitory activity against PI3Kδ; type: biochemical; conditions: 3-fold serial dilution from 10 μM to 0.51 nM, 10 concentrations
Protocol: as §5

mTOR = mTOR (Homo sapiens (Human), UniProt P42345); assay: Kinase selectivity: inhibitory activity against mTOR; type: biochemical; conditions: 3-fold serial dilution from 10 μM to 0.51 nM, 10 concentrations
Protocol: as §5

[5] = Homo sapiens, TOV21G cells, 120 hours, CellTiter-Glo
[6] = TOV21G cells, 120 hours, CellTiter-Glo

Chain of ATR kinase (Q13535 whole entry, looked up): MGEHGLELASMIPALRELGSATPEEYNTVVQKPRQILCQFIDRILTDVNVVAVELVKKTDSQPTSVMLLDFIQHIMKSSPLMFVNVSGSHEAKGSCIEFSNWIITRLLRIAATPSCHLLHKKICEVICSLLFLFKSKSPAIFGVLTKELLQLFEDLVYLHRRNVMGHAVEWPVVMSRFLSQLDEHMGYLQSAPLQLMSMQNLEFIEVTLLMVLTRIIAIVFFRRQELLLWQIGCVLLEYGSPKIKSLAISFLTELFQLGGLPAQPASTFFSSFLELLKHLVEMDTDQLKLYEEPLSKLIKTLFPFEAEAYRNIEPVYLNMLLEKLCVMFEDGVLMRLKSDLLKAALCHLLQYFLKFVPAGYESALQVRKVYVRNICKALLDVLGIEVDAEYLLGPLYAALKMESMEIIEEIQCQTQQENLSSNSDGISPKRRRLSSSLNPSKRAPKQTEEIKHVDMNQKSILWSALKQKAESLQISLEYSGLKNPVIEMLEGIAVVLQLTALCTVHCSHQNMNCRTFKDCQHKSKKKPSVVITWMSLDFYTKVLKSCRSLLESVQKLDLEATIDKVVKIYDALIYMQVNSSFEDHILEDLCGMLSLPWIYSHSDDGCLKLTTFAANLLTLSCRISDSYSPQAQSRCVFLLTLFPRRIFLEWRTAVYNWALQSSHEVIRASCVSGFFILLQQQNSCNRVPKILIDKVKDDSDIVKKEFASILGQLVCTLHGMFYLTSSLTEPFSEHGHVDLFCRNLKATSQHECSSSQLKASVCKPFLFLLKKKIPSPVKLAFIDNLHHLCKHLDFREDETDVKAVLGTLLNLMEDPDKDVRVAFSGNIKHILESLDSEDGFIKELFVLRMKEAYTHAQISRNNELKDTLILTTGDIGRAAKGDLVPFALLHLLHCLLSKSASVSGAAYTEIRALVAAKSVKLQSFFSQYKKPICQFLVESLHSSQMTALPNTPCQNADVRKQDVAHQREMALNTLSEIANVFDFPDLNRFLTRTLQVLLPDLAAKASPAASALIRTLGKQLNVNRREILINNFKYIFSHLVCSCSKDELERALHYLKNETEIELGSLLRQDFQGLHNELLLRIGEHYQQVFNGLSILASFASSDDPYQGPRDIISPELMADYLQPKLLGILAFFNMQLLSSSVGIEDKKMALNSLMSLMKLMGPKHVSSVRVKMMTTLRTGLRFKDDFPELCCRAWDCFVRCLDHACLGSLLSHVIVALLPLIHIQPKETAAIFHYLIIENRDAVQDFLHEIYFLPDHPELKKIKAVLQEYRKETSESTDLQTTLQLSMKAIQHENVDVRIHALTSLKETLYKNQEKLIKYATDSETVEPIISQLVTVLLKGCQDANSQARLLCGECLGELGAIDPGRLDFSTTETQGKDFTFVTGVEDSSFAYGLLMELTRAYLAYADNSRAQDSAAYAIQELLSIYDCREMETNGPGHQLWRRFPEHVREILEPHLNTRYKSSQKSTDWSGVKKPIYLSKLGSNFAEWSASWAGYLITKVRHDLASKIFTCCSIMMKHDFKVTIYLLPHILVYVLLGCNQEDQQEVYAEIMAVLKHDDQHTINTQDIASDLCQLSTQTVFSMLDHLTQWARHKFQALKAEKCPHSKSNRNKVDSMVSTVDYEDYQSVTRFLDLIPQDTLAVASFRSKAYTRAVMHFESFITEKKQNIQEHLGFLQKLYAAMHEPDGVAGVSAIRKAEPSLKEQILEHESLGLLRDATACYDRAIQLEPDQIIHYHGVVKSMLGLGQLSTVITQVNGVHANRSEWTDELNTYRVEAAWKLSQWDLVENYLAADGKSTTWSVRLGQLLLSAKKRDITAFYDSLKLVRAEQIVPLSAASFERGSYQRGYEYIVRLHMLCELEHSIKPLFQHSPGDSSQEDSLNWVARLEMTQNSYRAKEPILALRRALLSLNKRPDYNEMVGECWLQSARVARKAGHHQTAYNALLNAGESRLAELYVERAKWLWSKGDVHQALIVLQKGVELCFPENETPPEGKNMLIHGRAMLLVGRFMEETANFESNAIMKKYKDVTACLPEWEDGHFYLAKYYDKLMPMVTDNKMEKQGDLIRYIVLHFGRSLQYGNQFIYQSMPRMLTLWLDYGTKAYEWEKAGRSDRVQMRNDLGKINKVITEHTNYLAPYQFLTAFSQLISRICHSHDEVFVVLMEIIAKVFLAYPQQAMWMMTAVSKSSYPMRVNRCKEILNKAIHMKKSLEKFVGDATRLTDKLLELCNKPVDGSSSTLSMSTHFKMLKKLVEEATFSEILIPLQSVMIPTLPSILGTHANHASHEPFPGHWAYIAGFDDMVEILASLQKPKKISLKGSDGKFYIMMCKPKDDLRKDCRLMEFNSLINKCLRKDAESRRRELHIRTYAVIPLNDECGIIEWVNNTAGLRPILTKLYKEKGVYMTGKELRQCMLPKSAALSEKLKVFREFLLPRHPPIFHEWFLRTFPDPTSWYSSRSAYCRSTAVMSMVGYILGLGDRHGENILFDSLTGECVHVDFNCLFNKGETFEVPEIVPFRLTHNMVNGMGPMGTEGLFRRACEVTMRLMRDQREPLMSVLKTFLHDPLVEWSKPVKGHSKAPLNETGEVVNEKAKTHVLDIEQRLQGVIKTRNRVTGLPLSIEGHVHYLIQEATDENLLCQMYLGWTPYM
Chain of ATR kinase (Q8WXE1 whole entry partner, looked up): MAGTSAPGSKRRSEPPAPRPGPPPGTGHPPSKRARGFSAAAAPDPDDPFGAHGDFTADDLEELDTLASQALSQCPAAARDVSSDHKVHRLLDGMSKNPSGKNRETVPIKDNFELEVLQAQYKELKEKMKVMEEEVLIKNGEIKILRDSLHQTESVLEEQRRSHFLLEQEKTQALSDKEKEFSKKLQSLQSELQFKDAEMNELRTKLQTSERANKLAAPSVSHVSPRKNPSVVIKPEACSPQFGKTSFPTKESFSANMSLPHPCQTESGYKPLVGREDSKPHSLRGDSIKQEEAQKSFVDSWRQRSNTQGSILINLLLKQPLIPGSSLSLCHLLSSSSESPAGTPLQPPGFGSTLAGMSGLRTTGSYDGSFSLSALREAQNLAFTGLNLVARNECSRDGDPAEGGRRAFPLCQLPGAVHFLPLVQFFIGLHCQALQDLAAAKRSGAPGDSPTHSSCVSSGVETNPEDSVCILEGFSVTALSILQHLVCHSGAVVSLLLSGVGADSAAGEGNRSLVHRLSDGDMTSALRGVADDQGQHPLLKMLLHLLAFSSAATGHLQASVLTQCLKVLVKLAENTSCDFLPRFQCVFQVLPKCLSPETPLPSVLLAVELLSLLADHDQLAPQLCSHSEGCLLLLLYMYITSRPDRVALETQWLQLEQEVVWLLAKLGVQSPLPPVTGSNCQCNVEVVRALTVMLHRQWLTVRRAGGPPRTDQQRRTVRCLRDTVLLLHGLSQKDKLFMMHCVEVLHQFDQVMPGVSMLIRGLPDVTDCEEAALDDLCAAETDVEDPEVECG

Compound `Cc1nn(C2CCNCC2)c(C(F)(F)F)c1-c1cc(N2CCOC[C@H]2C)nc2c(-c3ccn[nH]3)cnn12` [Compound A1] has an IC50 (ATR kinase) of 70 nM, an IC50 [1, 5] of 0.66 µM and an IC50 (MV4-11 (leukemia) cells; Homo sapiens) of 0.66 µM.
With `Cc1c(-c2cc(N3CCOC[C@H]3C)nc3c(-c4ccn[nH]4)cnn23)c(C(F)(F)F)nn1C1CCNCC1` [Compound A2] the IC50 (ATR kinase) was 33 nM, the IC50 [1, 5] was 0.83 µM and the IC50 (MV4-11 (leukemia) cells; Homo sapiens) was 0.78 µM.
For `Cc1nn(C2CCNCC2)c(C)c1-c1cc(N2CCOC[C@H]2C)nc2c(-c3ccn[nH]3)cnn12` [Compound A3], the IC50 (ATR kinase) was 184 nM.
With `Cc1noc(C)c1-c1cc(N2CCOC[C@H]2C)nc2c(-c3ccn[nH]3)cnn12` [Compound A4] the IC50 (ATR kinase) was 74 nM, the IC50 [1, 5] was 1.05 µM and the IC50 (MV4-11 (leukemia) cells; Homo sapiens) was 0.75 µM.
`Cc1nn(C2CCNCC2)c(C(F)(F)F)c1-c1cc(N2CCOC[C@H]2C)nc2c(-c3ccccn3)cnn12` [Compound A6] showed an IC50 (ATR kinase) of 17 nM.
In the case of `Cc1nn(C2CCNCC2)c(C(F)(F)F)c1-c1cc(N2CCOC[C@H]2C)nc2c(-c3cccs3)cnn12` [Compound A7], the IC50 (ATR kinase) is reported as 12 nM.
With `Cc1nnn(C)c1-c1cc(N2CCOC[C@H]2C)nc2c(-c3ccn[nH]3)cnn12` [Compound A8] the IC50 (ATR kinase) was 84 nM, the IC50 [1, 6] was 0.78 µM and the IC50 (MV4-11 (leukemia) cells) was 0.68 µM.
Compound `Cc1nn(-c2cncc(F)c2)c(C)c1-c1cc(N2CCOC[C@H]2C)nc2c(-c3ccn[nH]3)cnn12` [Compound A9] has an IC50 (ATR kinase) of 2 nM, an IC50 ([1]; Homo sapiens, TOV21G, 120 h) of 0.28 µM and an IC50 (MV4-11 (leukemia) cells; Homo sapiens) of 0.25 µM. The half-life at 2 nM [2] was 1.43 h, the half-life at 2 nM [3] was 3.63 h and the AUC [4] was 6950 ng·h/mL. For the same compound, the Cmax [4] was 1810 ng/mL, the Tmax [4] was 0.25 h and the half-life [4] was 3.3 h. The IC50 (ATM) was 6370 nM, the IC50 (DNA-PK) was 303 nM and the IC50 (PI3Kα) was 4060 nM. For the same compound, the IC50 (PI3Kδ) was 1130 nM and the IC50 (mTOR) was 1830 nM.
With `Cc1nn(-c2cncc(C(F)F)c2)c(C)c1-c1cc(N2CCOC[C@H]2C)nc2c(-c3ccn[nH]3)cnn12` [Compound A10] the IC50 (ATR kinase) was 3 nM, the IC50 ([1]; Homo sapiens, TOV21G, 120 h) was 0.3 µM and the IC50 (MV4-11 (leukemia) cells; Homo sapiens) was 0.27 µM. The half-life at 2 nM [2] was 0.6 h, the half-life at 2 nM [3] was 2.7 h and the AUC [4] was 14300 ng·h/mL. For the same compound, the Cmax [4] was 4890 ng/mL, the Tmax [4] was 0.25 h and the half-life [4] was 1.76 h. The IC50 (ATM) was 4120 nM and the IC50 (DNA-PK) was 1260 nM.
Compound `Cc1nn(-c2cncc(C#N)c2)c(C)c1-c1cc(N2CCOC[C@H]2C)nc2c(-c3ccn[nH]3)cnn12` [Compound A11] has an IC50 [1, 5] of 0.38 µM and an IC50 (MV4-11 (leukemia) cells; Homo sapiens) of 0.5 µM.
With `Cc1nn(-c2cncc(Cl)c2)c(C)c1-c1cc(N2CCOC[C@H]2C)nc2c(-c3ccn[nH]3)cnn12` [Compound A12] the IC50 (ATR kinase) was 2 nM, the IC50 [1, 5] was 0.33 µM and the IC50 (MV4-11 (leukemia) cells; Homo sapiens) was 0.26 µM. For the same compound, the AUC [4] was 8330 ng·h/mL, the Cmax [4] was 2270 ng/mL and the Tmax [4] was 0.33 h. The half-life [4] was 1.98 h.
In the case of `Cc1nn(-c2ccnnc2)c(C)c1-c1cc(N2CCOC[C@H]2C)nc2c(-c3ccn[nH]3)cnn12` [Compound A13], the IC50 (ATR kinase) is reported as 2 nM, the IC50 [1, 5] is reported as 0.21 µM and the IC50 (MV4-11 (leukemia) cells; Homo sapiens) is reported as 0.28 µM.
Compound `Cc1nn(-c2ccc(=O)[nH]c2)c(C)c1-c1cc(N2CCOC[C@H]2C)nc2c(-c3ccn[nH]3)cnn12` [Compound A14] has an IC50 (ATR kinase) of 3 nM.
Compound `Cc1nn(C(=O)N2CCNCC2)c(C)c1-c1cc(N2CCOC[C@H]2C)nc2c(-c3ccn[nH]3)cnn12` [Compound A15] has an IC50 (ATR kinase) of 13 nM, an IC50 [1, 6] of 0.27 µM and an IC50 (MV4-11 (leukemia) cells) of 0.45 µM.
`Cc1nn(C2CCNC[C@H]2F)c(C)c1-c1cc(N2CCOC[C@H]2C)nc2c(-c3ccn[nH]3)cnn12` (some centres unmarked) [Compound A16-II] gave an IC50 (ATR kinase) of 31 nM, an IC50 [1, 6] of 0.52 µM and an IC50 (MV4-11 (leukemia) cells) of 0.57 µM.
With `Cc1nn(C2CCNC[C@@H]2F)c(C)c1-c1cc(N2CCOC[C@H]2C)nc2c(-c3ccn[nH]3)cnn12` (some centres unmarked) [Compound A16-I] the IC50 (ATR kinase) was 33 nM, the IC50 [1, 6] was 1.4 µM and the IC50 (MV4-11 (leukemia) cells) was 0.89 µM.
For `Cc1nn(-c2cncc(C(N)=O)c2)c(C)c1-c1cc(N2CCOC[C@H]2C)nc2c(-c3ccn[nH]3)cnn12` [Compound A17], the IC50 (ATR kinase) was 3 nM, the IC50 [1, 6] was 1.29 µM and the IC50 (MV4-11 (leukemia) cells) was 0.85 µM.
In the case of `Cc1nn(CCO)c(C)c1-c1cc(N2CCOC[C@H]2C)nc2c(-c3ccn[nH]3)cnn12` [Compound A18], the IC50 (ATR kinase) is reported as 8 nM, the IC50 [1, 6] is reported as 0.56 µM and the IC50 (MV4-11 (leukemia) cells) is reported as 0.74 µM.
With `Cc1nn(-c2cncc(O)c2)c(C)c1-c1cc(N2CCOC[C@H]2C)nc2c(-c3ccn[nH]3)cnn12` [Compound A19] the IC50 (ATR kinase) was 4 nM, the IC50 [1, 6] was 0.66 µM and the IC50 (MV4-11 (leukemia) cells) was 0.6 µM.
For `C[C@@H]1COCCN1c1cc(C2(O)CCOCC2)n2ncc(-c3ccn[nH]3)c2n1` [Compound A20], the IC50 (ATR kinase) was 188 nM, the IC50 [1, 6] was 0.73 µM and the IC50 (MV4-11 (leukemia) cells) was 0.92 µM.
In the case of `C[C@@H]1COCCN1c1cc(-c2cccnc2C(F)(F)F)n2ncc(-c3ccn[nH]3)c2n1` [Compound A21], the IC50 (ATR kinase) is reported as 52 nM, the IC50 [1, 5] is reported as 0.63 µM and the IC50 (MV4-11 (leukemia) cells; Homo sapiens) is reported as 0.74 µM.
In the case of `Cc1nn(-c2cccnc2)c(C)c1-c1cc(N2CCOC[C@H]2C)nc2c(-c3ccn[nH]3)cnn12` [Compound A22], the IC50 (ATR kinase) is reported as 2 nM, the IC50 [1, 5] is reported as 0.19 µM and the IC50 (MV4-11 (leukemia) cells; Homo sapiens) is reported as 0.23 µM.
In the case of `Cc1cncc(-n2nc(C)c(-c3cc(N4CCOC[C@H]4C)nc4c(-c5ccn[nH]5)cnn34)c2C)c1` [Compound A23], the IC50 (ATR kinase) is reported as 4 nM, the IC50 [1, 5] is reported as 0.26 µM and the IC50 (MV4-11 (leukemia) cells; Homo sapiens) is reported as 0.3 µM.
In the case of `Cc1nn(-c2ccncc2)c(C)c1-c1cc(N2CCOC[C@H]2C)nc2c(-c3ccn[nH]3)cnn12` [Compound A24], the IC50 (ATR kinase) is reported as 2 nM, the IC50 [1, 5] is reported as 0.15 µM and the IC50 (MV4-11 (leukemia) cells; Homo sapiens) is reported as 0.23 µM.
